US7910723B2, “IG20 splice variants therapeutics for cancer” (The Board of Trustees of the University of Illinois, priority 2006, dated 2011)

Assays:
Type in all cases: cell-based
Akt and MADD = experiment: TRAIL treatment of HeLa cells: Akt and MADD phosphorylation, caspase-8 activation (immunoblot); settings: TRAIL 50 ng/ml
Description: (A) TRAIL treatment reduces the levels of Akt and MADD phosphorylation, and leads to caspase-8 activation. Hela cells were treated with TRAIL (50 ng/ml). The phosphorylation level of Akt was analyzed by immunoblotting using an anti-phospho Akt antibody. The phosphorylation levels of MADD was analyzed by immunoblotting using the anti-phospho T1041 antibody. Caspase-8 activation was analyzed by immunoblotting using an anti-caspase-8 antibody. (B) TRAIL induces FADD-procaspase-8 binding depending upon MADD phosphorylation status. HeLa cells were transfected either with caAkt or pcDNA3.1 empty vector. Cells were treated with TRAIL for 1 h. The MADD phosphorylation was analyzed by immunoblotting using the anti-phospho T1041 antibody. The association of procaspase-8 and FADD was analyzed by immunoprecipitation using an anti-FADD antibody followed by immunoblotting using an anti-caspase-8 antibody. […] 24 h later cells were treated with TRAIL (50 ng/ml) for 4 hours and caspase-8 activity was analyzed. *p<0.05 vs TRAIL+caAkt. […] The localizations of phosphorylated and nonphosphorylated forms of MADD in the membrane and cytosolic fractions were analyzed by immunoblotting using the anti-phospho T1041 antibody. […] The Bax distribution in cytoplasm and HM was analyzed by immunoblotting using an anti-Bax antibody. […] The distributions of Bax in cytoplasm and HM were analyzed as described for (E). […]

MADD [1] = experiment: Phosphorylation of endogenous MADD in HeLa cells (anti-phospho antibodies); settings: LY 10 μM 1 h, IGF-1 150 ng/ml 20 minutes
DR4 = experiment: Association of exogenous MADD with DR4 in HEK293 cells (immunoprecipitation)
Description: (A) Phosphorylation status of MADD could influence its binding to DR4. HEK293 cells were transfected with wtMADD or MADD mutants. 36 h after transfection, the cells were harvested for immunoprecipitation using an anti-DR4 antibody followed by immunoblotting using an anti-YFP antibody to detect exogenous MADD. The membrane was reprobed with an anti-DR4 antibody to show the protein loading. (B) PI3K can influence the association of exogenous MADD with DR4. HEK293 cells were transfected with wtMADD. Twenty four hours after transfection, the cells were serum starved for 20 h. Further, they were treated with LY (10 μM) for 1 h, IGF-1 (150 ng/ml) for 20 minutes. Immunoprecipitation using an anti-DR4 antibody was followed by immunoblotting using anti-YFP or anti-DR4 antibody. (C) Akt can influence exogenous MADD association with DR4. HEK293 cells were co-transfected with wtMADD along with DN-Akt or the empty vector pcDNA3.1 (pcDNA). Thirty six hours after transfection, the cells were harvested for immunoprecipitation using anti-DR4 antibody followed by immunoblotting with an anti-YFP or an anti-DR4 antibody. (D) PI3K can influence the association of endogenous MADD with DR4. HeLa cells were serum starved for 20 h, then treated with LY (10 μM) for 1 h, IGF-1 (150 ng/ml) for 20 minutes. Immunoprecipitation using an anti-DR4 antibody was followed by immunoblotting with an anti-MADD or an anti-DR4 antibody. (E) Akt can influence the association of endogenous MADD with DR4. HeLa cells were transfected with DN-Akt or pcDNA. Thirty six hours after transfection, the cells were collected for immunoprecipitation using an anti-DR4 antibody followed by immunoblotting with an anti-MADD antibody.
MADD can bind to DR4 and thereby block the activation of the extrinsic apoptotic pathway. […] Stimulation of PI3K by IGF-1 increased, while inhibition by LY reduced, the association between wtMADD and DR4 (FIG. 15B). […] This interaction was reduced in the presence of LY (FIG. 15D) or DN-Akt (FIG. 15E).
Immunoprecipitation. Immunoprecipitations were performed using standard procedures. The samples were precleared with 10% (vol/vol) Protein-A agarose (Roche) for 1 h on a rocking platform. Specific antibodies were added and rocked for 1 h. Immunoprecipitates were captured by incubating with 10% (vol/vol) Protein-A agarose for an hour. The agarose beads were spun down and washed three times with NET/NP40 buffer (150 mM NaCl, 2 mM EDTA, 50 mM Tris-HCl pH 7.5, 0.1% NP-40). The antigens were released and denatured by adding SDS sample buffer. Immunoblots were prepared and analysed as described above.

MADD [2] = experiment: Phosphorylation of exogenous wtMADD in HEK293 cells (anti-phospho antibodies); settings: HEK293 transfected with wtMADD; LY 10 μM 1 h, IGF-1 150 ng/ml 20 minutes
Description: (A) In vitro phosphorylation of rMADD by Akt. GST-wtMADD or -MADD mutants were expressed in bacteria, purified, and then incubated with rAkt and γ[^32P] ATP. After 1 h incubation at 30° C., the products were resolved on SDS-PAGE and ^32P-labeled proteins were visualized by autoradiography. (B) MADD is labeled by [^32P]orthophosphate in vivo. HEK293 cells were transfected with wtMADD or MADD mutant constructs. Twenty-four hours after transfection cells were incubated with 0.3 mCi/ml [32P]orthophosphate for 6 h. MADD was immunoprecipitated with an anti-YFP antibody. The precipitated MADD was separated by SDS-PAGE, transferred to a nitrocellulose membrane, and subjected to autoradiography. Loaded MADD was visualized by staining the same membrane with an anti-YFP antibody. (C) HEK293 cells were transfected with cDNAs for wtMADD or MADD mutants and. 36 h later the cells were harvested for immunoblotting using the anti-phospho-S-70, -T-173 or -T-1041 antibodies. An anti-YFP antibody was used to detect exogenous MADD. (D) HEK293 cells were transfected with wtMADD and 24 hours later cells were serum starved for 20 h. Subsequently, they were treated with LY (10 μM) for 1 h and/or IGF-1 (150 ng/ml) for 20 minutes. The cell lysates were immunoblotted and probed with anti phospho-specific antibodies or an anti-YFP antibody. […]

Substance | Caspase-8 activation (Akt and MADD) | Levels of phosphorylation of Akt and MADD (Akt and MADD) | Phosphorylation of endogenous MADD (MADD [1]) | Association of exogenous MADD with DR4 (DR4) | S70, T173 and T1041 phosphorylation levels of MADD (MADD [2])
tumor necrosis factor-related apoptosis-inducing ligand [TRAIL] | concomitant activation of caspase-8 | reduced | – | – | –
insulin-like growth factor-1 [IGF-1] | – | – | phosphorylated at all three sites | increased | increased
